Where no end group is shown, it is not given here.
What was measured:
[1] = test system: HUVE cells; experiment: Quantification of HUVE cell adhesion on gold-patterned silicon substrates (cell coverage, single cell ratio); type: cell-based, human; conditions: HUVE cells cultured 18 hours; 20 μm gold squares; 378 cell adhesion regions
Method: Thus, quantification of single cell coverage is necessary for understanding the capability of this peptide-mediated cell adhesion process. HUVE cells were cultured on fibronectin and peptide modified platforms in standard culture media for 18 hours and stained with DAPI for cell nuclei to emit blue fluorescence. Fluorescence microscopy was used to identify single or multiple cells on gold square-based cell adhesion regions. Cell coverage and single cell population for each type of surface were quantified from 378 gold square-based cell adhesion regions (3 samples×2 areas of interest with 63 cell adhesion regions per area). Cell coverage was calculated from the ratio of gold square-based cell adhesion regions covered with cells to the total number of the cell adhesion regions in the area of interest, and single cell ratio was obtained by dividing the number of gold square-based cell adhesion regions covered with single cells to the total number of cell adhesion regions covered with cells (single or multiple). Exemplary images of adhered cells on three model platforms are shown in FIGS. 9A-D, and quantification results are shown in Table 1. As expected, the fibronectin and KREDVY modified surfaces have higher cell coverage than the REDVY modified surface due to larger number binding domains available on the former two surfaces than on the latter. Both peptide modified surfaces have much higher single cell ratios than the fibronectin modified surface. Clearly, the KREDVY modified surface is the best candidate for single cell patterning in light of both cell coverage and single cell ratio. As a side note, for electrical recording, it is easy to distinguish between single and multiple cells, allowing either type of site to be observed selectively.
HUVE cells were cultured in EGM-2 medium supplemented with bovine brain extract (BBE), hydrocortisone, hFGF-B, VEGF, R3-IGF-1, ascorbic acid, heparin, FBS, hEGF, and GA-1000. The final serum concentration was 2%. Cells were seeded on culture flasks at passage 1 and the medium was changed after 24 hours. At 70% confluency, cells were subcultured as follows. After aspiration from culture flasks, cells were rinsed with 2-3 ml of HEPES-BSS buffer solution for 3 times, followed by incubation with 2 ml of trypsin/EDTA solution. The trypsinization process continued until about 90% of the cells were collected. After cells were released, the trypsin was neutralized in the flask with 4 ml of TNS, and the detached cells were transferred to a 15-ml sterile centrifuge tube. The harvested cells were centrifuged at 220 g for 5 minutes. Cells were diluted in growth medium. Cells at a concentration of 1.5×10^5 cells/ml were seeded on the substrates. The substrates were incubated for 18 hours before fixation with a mixture of 2% glutaraldehyde and paraformaldehyde in phosphate buffer solution for optical microscopy and with 4% paraformaldehyde for fluorescence microscopy.

[2] = test system: HUVE cells; experiment: Cell viability assay (apoptosis and necrosis, Annexin V / propidium iodide) of patterned HUVE cells; type: cell-based, human; conditions: after 7 days of cell adhesion
Excerpt: Retaining cell viability after cell adhesion is essential for cell biology studies and biomedical applications such as cell-based sensors and drug screening microarrays. The viability of cells patterned on the three model platforms were studied with an apoptosis assay noted in EXAMPLE section. FIGS. 10A-F show fluorescence images of HUVE cells on cell patterning platforms immobilized with (a) fibronectin, (b) REDVY peptide, and (c) KREDVY peptide after 7 days of cell adhesion. Cells on the platform with chemically bound fibronectin appeared apoptotic and necrotic (FIGS. 10A and 10D). This might be caused by the competitive adhesion of multiple cells on a limited surface area of the gold square-based cell adhesion regions, hindering individual cell growth and survival. […] Because the conformation of fibronectin protein on the gold square-based cell adhesion regions varies from site to site, the degree of interactions of HUVE cells with the binding peptides of the protein and the number of cells attached on each site can differ from pattern to pattern.
VYBRANT apoptosis assay allows for the simultaneous visualization of viable, necrotic, and apoptotic cells on substrates. Necrosis results from direct cell damage; apoptosis is genetically-programmed cell death in which cells effectively commit suicide. […] The substrates were incubated with 100 μL of Annexin V and 2 μL of PI solution for 15 minutes at room temperature, washed twice with binding buffer, and imaged with a fluorescence microscope.

[3] = test system: RAW264.7 cells (murine monocyte/macrophage); experiment: Synchrotron FTIR spectromicroscopy of patterned macrophage cells exposed to LPS; type: cell-based; conditions: for peak of amide I group post-exposure: single cells, eight electrodes of two substrates
Excerpt: Cells in an isolated state (e.g., one cell on each microelectrode) generally respond differently to an external stimulus than when they are in a communicating state (e.g., a cluster of cells on a microelectrode).
IR spectra and optical reflectance DIC images were acquired from cells on the patterned substrates with single or a group of macrophage cells on each electrode both before and after cellular exposure to LPS. Synchrotron FTIR spectra were acquired from cell-patterned surfaces with a Nicolet Magna 760 FTIR bench and a Nicolet Nic-Plan™ IR microscope equipped with a computer-controlled x-y-z sample stage (via Nicolet Atlμs™ and OMNIC software) and an MCT-A detector at Beamline 1.4.3 of the Advanced Light Source (ALS) in Lawrence Berkeley National Laboratory, Berkeley. C A. Martin, M. C. and McKinney, R. W., Proceed. Mater. Res. Soc. 524, 11-15, 1998; C A. Martin, M. C. and McKinney, R. W., Proceedings of the Low Energy Electrodynamics in Solids, '99 Conference, Pécs, Hungary, Special Issue of Ferroelectrics, 249, 1-10, 2001. In order to align the incident IR beam onto the substrate, an IR map (with 2-10 μm step size in x-y plane) was acquired around a gold electrode for a full IR range of 400-10,000 wave numbers. Under this condition, the whole spectrum appeared as a broad peak and an intensity profile was given for the mapped region. The x, y positions were adjusted so that the highest intensity region of the beam was aligned with the center of the gold electrode. The samples were measured at wave numbers of 650-10,000 cm^−1 using an XT-KBr beamsplitter and an MCT detector. The synchrotron infrared light is focused to a diffraction-limited spot size with a wavelength-dependent diameter of approximately 3-10 μm across the mid-IR range of interest. Carr, G. L. Review of Scientific Instruments 72, 1613-1619, 2001; and Dumas, P., et al., Faraday Discussions 126, 289-302, 2004. An on-stage temperature controlled mini incubator was used to maintain a proper environment for cellular analysis. Prior to infrared analysis, dead and loosely bound cells were removed from the substrate by three PBS washes (to eliminate the possible interference of dead and loosely bound cells to the real-time signals generated by live cells), the cell culture medium was replaced with fresh sterile medium, and the substrate covered with a layer of the medium was transferred to the mini incubator. The spectra were acquired in less than 10 minutes following the sample transfer to ensure cell viability and to minimize possible interference from environmental changes. Synchrotron FTIR spectra of 128 scans at a resolution of 8 cm^−1 were acquired from individual electrodes patterned with cells. Background signals were collected from the silicon oxide surface of the same substrate right before the data collection. […] All spectra were baseline-corrected and normalized to account for the continuous decay of the synchrotron beam in the storage ring. An appropriately scaled water vapor spectrum was subtracted from the spectra of cells. The spectra obtained with conventional FTIR were acquired from cell-patterned surfaces using a Thermo-Electron Nexus 870 bench and a Thermo-Electron Continuum infrared microscope with an MCT-A detector at Beamline 1.4.4 of the ALS under the same conditions set for the synchrotron measurements, except that an aperture size of 90 μm×90 μm were employed to maximize the signal intensity.

[4] = test system: RAW264.7 cells (murine monocyte/macrophage); experiment: DIC reflectance microscopy of macrophage morphology after LPS exposure; type: cell-based; conditions: LPS 0.1, 1.0 and 10 μg/mL, 21 hours
Excerpt: Cell-cultured surfaces were examined with a differential interference contrast (DIC) reflectance microscope (Nikon E800 Upright Microscope, NY, N.Y.) equipped with DIC-20× (N.A. 0.46) and DIC-50× (N.A. 0.8) objectives. Images were acquired with a Coolsnap camera (series A99G81021, Roper Scientific Inc., AZ, USA) attached to the microscope and a computer. […] FIGS. 12A, 12C, and 12E are optical DIC images of electrodes with a single cell, double cells, and triple cells, respectively.

[5] = LPS 1 μg/mL, 21 hours, 10 μm×10 μm electrodes, mean±S.D. of four electrodes

In the case of Arg-Glu-Asp-Val-Tyr (REDVY), the “% Cell Coverage” value [1] is reported as 56.28 ± 3.03%, the “% Ratio of single-cell sites/total cell sites” value [1] is reported as 62.25 ± 3.23% and the “cell apoptosis / viability (Annexin V)” value [2] is reported as “became apoptotic at day 7”. The “cell necrosis (propidium iodide)” value [2] was “No cell necrosis was observed”.

In the case of Fibronectin, the “% Cell Coverage” value [1] is reported as 83.47 ± 3.20%, the “% Ratio of single-cell sites/total cell sites” value [1] is reported as 27.41 ± 3.64% and the “cell apoptosis / viability (Annexin V)” value [2] is reported as “apoptotic”. For the same substance, the “cell necrosis (propidium iodide)” value [2] was “necrotic”.

In the case of KREDVY, the “% Cell Coverage” value [1] is reported as 78.40 ± 3.96%, the “% Ratio of single-cell sites/total cell sites” value [1] is reported as 72.17 ± 2.49% and the “cell apoptosis / viability (Annexin V)” value [2] is reported as “remained viable throughout 7 days”. For the same substance, the “cell necrosis (propidium iodide)” value [2] was “No cell necrosis was observed”.

lipopolysaccharide [LPS] was tested, and the “Amide I wave number, Double cells” value [3, 5] was 1665 ± 2.6 cm⁻¹, the “Amide I wave number, Single cell” value [3, 5] was 1661 ± 1.6 cm⁻¹ and the “Amide I wave number, Triple cells” value [3, 5] was 1658 ± 3.4 cm⁻¹. The “peak of amide I group post-exposure” value ([3]; 0.1 μg/mL LPS, 21 hours) was 1659 ± 1.7 cm⁻¹, the “peak of amide I group post-exposure” value ([3]; 1 μg/mL LPS, 21 hours) was 1661 ± 1.0 cm⁻¹ and the “peak of amide I group post-exposure” value ([3]; 10 μg/mL LPS, 21 hours) was 1676 ± 1.0 cm⁻¹. For the same substance, the “shift in wave number” value ([3]; single-cell platform, LPS 1.0 μg/mL) was 30 cm⁻¹ and the cell morphology [4] was “enlarged, dendritic-like shape”.

Reference: patent US10119958B2, “Arrays and methods for guided cell patterning” (University of Washington, priority 2007, dated 2018)
